{"source": "patent WO2019242687A1", "about": "“1,3-dioxane-4,6-dione compound, and preparation method, pharmaceutical composition, and application thereof” (Shanghai Institute of Materia Medica of CAS, priority 2018, dated 2018)", "key": {"SIRT1 F414A": {"molecular_target": "T1, SIRT1 F414A (Homo sapiens, UniProt Q96EB6, F414A)", "T1 construct": "made in house", "T1 sequence (Q96EB6 1-747 F414A)": "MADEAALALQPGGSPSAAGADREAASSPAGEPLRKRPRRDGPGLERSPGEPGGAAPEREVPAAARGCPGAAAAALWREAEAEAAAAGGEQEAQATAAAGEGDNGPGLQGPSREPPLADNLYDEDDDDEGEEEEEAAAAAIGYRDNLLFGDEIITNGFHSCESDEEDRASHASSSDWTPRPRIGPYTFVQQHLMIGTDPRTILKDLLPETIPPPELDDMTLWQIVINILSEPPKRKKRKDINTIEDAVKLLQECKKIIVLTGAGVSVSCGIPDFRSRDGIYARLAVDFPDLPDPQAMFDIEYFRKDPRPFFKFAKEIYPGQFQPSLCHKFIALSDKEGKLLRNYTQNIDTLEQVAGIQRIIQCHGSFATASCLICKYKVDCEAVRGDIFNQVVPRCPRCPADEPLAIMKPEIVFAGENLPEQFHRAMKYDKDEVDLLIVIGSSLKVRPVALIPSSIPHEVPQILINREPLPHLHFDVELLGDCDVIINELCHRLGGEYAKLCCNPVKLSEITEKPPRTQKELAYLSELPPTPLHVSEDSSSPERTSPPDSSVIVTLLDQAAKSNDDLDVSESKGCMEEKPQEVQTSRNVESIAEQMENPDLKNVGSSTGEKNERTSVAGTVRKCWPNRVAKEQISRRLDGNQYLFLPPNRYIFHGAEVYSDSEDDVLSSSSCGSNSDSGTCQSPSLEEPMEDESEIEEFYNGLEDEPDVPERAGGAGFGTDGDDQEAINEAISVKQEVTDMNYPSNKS", "experiment": "Inhibitory constant on SIRT1 mutant F414A", "assay_type": "biochemical"}, "SIRT1 F273L": {"molecular_target": "T2, SIRT1 F273L (Homo sapiens, UniProt Q96EB6, F273L)", "T2 construct": "made in house", "T2 sequence (Q96EB6 1-747 F273L)": "T1 sequence (Q96EB6 1-747 F414A) with F273L, A414F", "experiment": "Inhibitory constant on SIRT1 mutant F273L", "assay_type": "biochemical"}, "[1]": {"system": "p53 acetylation levels in SH-SY5Y human neuroblastoma cells", "experiment": "Effect of compounds on p53 acetylation level in cells (Western blot)", "assay_type": "cell-based", "conditions": "ATRA-induced differentiation, compound 10 μM, 2 h, Figure 5"}, "SIRT1 I347A": {"molecular_target": "T3, SIRT1 I347A (Homo sapiens, UniProt Q96EB6, I347A)", "T3 construct": "made in house", "T3 sequence (Q96EB6 1-747 I347A)": "T1 sequence (Q96EB6 1-747 F414A) with I347A, A414F", "experiment": "Inhibitory constant on SIRT1 mutant I347A", "assay_type": "biochemical"}}, "note": "Where a chain is given by its changes, count along the chain named."}
{"smiles": "COc1cc(C=C2C(=O)OC(c3ccccc3)OC2=O)cc(Br)c1O", "note": "(centres unmarked) [Compound S3, 5-(3-bromo-4-hydroxy-5-methoxybenzylidene) -2-phenyl-1,3-dioxane-4,6-dione]", "values": [{"measurement": "Ki", "setting": "SIRT1 F414A", "value": 25500, "unit": "nM"}, {"measurement": "effect of mutation on inhibitory activity of compound", "setting": "SIRT1 F414A; compared with the other mutants", "value": "影响最大"}, {"measurement": "Ki", "setting": "SIRT1 F273L", "value": 850, "unit": "nM"}, {"measurement": "effect on decrease of p53 acetylation level", "setting": "[1]", "value": "抑制ATRA诱导的SH-SY5Y细胞分化过程中p53乙酰化水平降低"}, {"measurement": "Ki", "setting": "SIRT1 I347A", "value": 670, "unit": "nM"}]}
